Source: patent US4421747A, “Inflammation-preventing pharmaceutical composition of oral administration” (A. Nattermann & Cie. GmbH, priority 1981, dated 1983)
Like-named read-outs stand apart in the source and are kept apart here.

Legend:
[1] = system: bleeding stomach ulcer; experiment: Ulcer development (bleeding stomach ulcer provoked by oral application, mean ulcer factor); type: in vivo, Wistar-rats; settings: for ED50: Rattus norvegicus, read-out: oral ED50
Procedure: The development of the ulcer was determined in accordance with
L. Mariani, "Eur. J. Toxicol.
R. Menguy & L. Desbaillets, "Proc. Soc. exp.
Ten male and ten female Wistar-rats (120 to 150 grams, in weight) which have not fed for 16 hours, were used for these tests. The bleeding stomach ulcer was provoked by oral application of the active substance. After 3.5 hours, the animals are killed and the stomach extracted, opened along the wide curvature and stretched onto a "Styropor" plate. The mean ulcer factor of the test and of the control group are determined. The variation is weighted in percentages as prevention of the ulcer formation.

[2] = system: rat paw oedema; experiment: rat-paw-oedema test (carragenin); type: in vivo; settings: for ED50: 3 h, read-out: oral ED50; for Prevention of Oedema: Table VII, 12 animals; for Effectiveness applied to Rat Paw Oedema: Table VIII, Dosage 10.0 mg/kg KGW, 12 Animals, prevention of oedema in percentages
Procedure: On one hind paw of each rat (weight 200 to 250 grams) an oedema was caused to develop by the "subplantane" application of carragenin (0.5% in a 0.9% NaCl solution) in the amount of 0.1 ml solution per paw.
After the application of the test substance, its volume not to exceed 10 ml per kg of body weight, the volume of the paw is determined in an overflow ("Ueberlauf"). After three hours the final value is ascertained. The test is carried out for every dosage by using 10 test and 10 control animals of one sex and repeated with the identical number of animals of the other sex. For the purpose of evaluation, the prevention of the oedema is expressed in percentages relative to the control group.

[3] = reference substances, rat-paw-oedema test, oral
[4] = Table V, oral, Dosage One cc per mg/kg of Body Weight (KGW), by proportion Indometacine:Phospholipon 100

CC(C)Cc1ccc(C(C)C(=O)O)cc1 (stereo not shown) [Ibuprofen, 2-(4-isobutylphenyl)-propinic acid]
Incidence of Ulcers ([1]; Table VI, oral, 5 mg/kg KGW, one value printed for without and with p^+ (Phospholipon 100, 1:1)): 20%
Incidence of Ulcers ([1]; Table VI, oral, 10 mg/kg KGW, without resp. with p^+ (Phospholipon 100, 1:1)): 20%
Incidence of Ulcers ([1]; Table VI, oral, 20 mg/kg KGW, without resp. with p^+ (Phospholipon 100, 1:1)): 40%
Incidence of Ulcers ([1]; Table VI, oral, 30 mg/kg KGW, without resp. with p^+ (Phospholipon 100, 1:1)): 50%
Ulcer Index ([1]; Table VI, rat, oral, 5 mg/kg KGW, mixture molar ratio Ibuprofen:Phospholipon 100 = 1:1, 3.5 h, n=10): 0.20 ± 0.13
Ulcer Index ([1]; Table VI, rat, oral, 10 mg/kg KGW, mixture molar ratio Ibuprofen:Phospholipon 100 = 1:1, 3.5 h, n=10): 0.30 ± 0.15
Ulcer Index ([1]; Table VI, rat, oral, 20 mg/kg KGW, mixture molar ratio Ibuprofen:Phospholipon 100 = 1:1, 3.5 h, n=10): 0.50 ± 0.22
Ulcer Index ([1]; Table VI, rat, oral, 30 mg/kg KGW, mixture molar ratio Ibuprofen:Phospholipon 100 = 1:1, 3.5 h, n=10): 0.71 ± 0.30

CCCCC1C(=O)N(c2ccccc2)N(c2ccccc2)C1=O [Phenylbutazone, 4-butyl-1,2-diphenylpyrazolidine-3,5-dion]
ED50 [2, 3]: 100 mg/kg
Ulcer Index ([1]; Table II, oral, 25 mg/kg KGW, mixture molar ratio Phenylbutazone:Phospholipon 100 = 2:1, 3.5 h, n=10): 0.70 ± 0.05
Incidence of Ulcers ([1]; Table II, oral, 25 mg/kg KGW, without resp. with p^+ (Phospholipon 100, 2:1)): 70%
Ulcer Index ([1]; Table II, oral, 50 mg/kg KGW, mixture molar ratio Phenylbutazone:Phospholipon 100 = 2:1, 3.5 h, n=10): 1.60 ± 0.42
Incidence of Ulcers ([1]; Table II, oral, 50 mg/kg KGW, without resp. with p^+ (Phospholipon 100, 2:1)): 60%
Ulcer Index ([1]; Table II, oral, 100 mg/kg KGW, mixture molar ratio Phenylbutazone:Phospholipon 100 = 2:1, 3.5 h, n=10): 1.80 ± 0.84
Incidence of Ulcers ([1]; Table II, oral, 100 mg/kg KGW, without resp. with p^+ (Phospholipon 100, 2:1)): 100%
Ulcer Index ([1]; Table II, oral, 200 mg/kg KGW, mixture molar ratio Phenylbutazone:Phospholipon 100 = 2:1, 3.5 h, n=10): 1.90 ± 0.66
Incidence of Ulcers ([1]; Table II, oral, 200 mg/kg KGW, one value printed for without and with p^+ (Phospholipon 100, 2:1)): 80%

CN(C)CCCN1c2ccccc2Sc2ccc(Cl)cc21 [chloropromazine]
ED50 ([1]; reference substances, ulcer test, oral): 105 mg/kg

CC(=O)OCC(=O)[C@@]1(O)CC[C@H]2[C@@H]3CCC4=CC(=O)CC[C@]4(C)[C@H]3[C@@H](O)C[C@@]21C [Hydrocortisoneacetate]
ED50 [2, 3]: 19 mg/kg

CC(=O)Oc1ccccc1C(=O)O [Acetyl-Salicylic Acid, acetyl-salicylic acid]
Ulcer Index ([1]; Table I, oral, 200 mg/kg KGW, mixture molar ratio Acetyl-Salicylic Acid:Phospholipon 100 = 2:1, 3.5 h, n=10): 1.20 ± 0.20
Incidence of Ulcers ([1]; Table I, oral, 200 mg/kg KGW, without resp. with p^+ (Phospholipon 100, 2:1)): 70%
Ulcer Index ([1]; Table I, oral, 400 mg/kg KGW, mixture molar ratio Acetyl-Salicylic Acid:Phospholipon 100 = 2:1, 3.5 h, n=10): 1.10 ± 0.50
Incidence of Ulcers ([1]; Table I, oral, 400 mg/kg KGW, without resp. with p^+ (Phospholipon 100, 2:1)): 50%
Ulcer Index ([1]; Table I, oral, 800 mg/kg KGW, mixture molar ratio Acetyl-Salicylic Acid:Phospholipon 100 = 2:1, 3.5 h, n=10): 1.20 ± 0.20
Incidence of Ulcers ([1]; Table I, oral, 800 mg/kg KGW, without resp. with p^+ (Phospholipon 100, 2:1)): 80%

COc1ccc2c(c1)c(CC(=O)O)c(C)n2C(=O)c1ccc(Cl)cc1 [Indometacine]
ED50 ([2]; Rattus norvegicus, po): 7.24 mg/kg
Prevention of Oedema ([2]; Indometacine 3.16 mg/kg p.o., mixture with Phospholipon 100 7.1 mg/kg p.o.): -47.3%
Prevention of Oedema ([2]; Indometacine 10 mg/kg p.o., mixture with Phospholipon 100 22.4 mg/kg p.o.): -37.8%
Effectiveness applied to Rat Paw Oedema ([2]; 3 hours elapsed after application): 32
Effectiveness applied to Rat Paw Oedema ([2]; 4 hours elapsed after application): 40
Effectiveness applied to Rat Paw Oedema ([2]; 5 hours elapsed after application): 28
Effectiveness applied to Rat Paw Oedema ([2]; 6 hours elapsed after application): 27
Ulcer Index ([1]; Table III, oral, 5 mg/kg KGW, mixture molar ratio Indometacine:Phospholipon 100 = 2:1, 3.5 h, n=10): 1.20 ± 0.30
Incidence of Ulcers ([1]; Table III, oral, 5 mg/kg KGW, without resp. with p^+ (Phospholipon 100, 2:1)): 70%
Ulcer Index ([1]; Table III, oral, 10 mg/kg KGW, mixture molar ratio Indometacine:Phospholipon 100 = 2:1, 3.5 h, n=10): 1.90 ± 0.90
Incidence of Ulcers ([1]; Table III, oral, 10 mg/kg KGW, without resp. with p^+ (Phospholipon 100, 2:1)): 90%
Ulcer Index ([1]; Table III, oral, 20 mg/kg KGW, mixture molar ratio Indometacine:Phospholipon 100 = 2:1, 3.5 h, n=10): 1.50 ± 0.40
Incidence of Ulcers ([1]; Table III, oral, 20 mg/kg KGW, without resp. with p^+ (Phospholipon 100, 2:1)): 100%
Incidence of Ulcers ([1]; Table IV, oral, 5 mg/kg KGW, without resp. with p^+ (Phospholipon 45, 1:2)): 80%
Incidence of Ulcers ([1]; Table IV, oral, 10 mg/kg KGW, one value printed for without and with p^+ (Phospholipon 45, 1:2)): 90%
Incidence of Ulcers ([1]; Table IV, oral, 20 mg/kg KGW, one value printed for without and with p^+ (Phospholipon 45, 1:2)): 100%
Incidence of Ulcers ([1]; Table IV, oral, 30 mg/kg KGW, without resp. with p^+ (Phospholipon 45, 1:2)): 80%
Ulcer Index ([1]; Table IV, rat, oral, 5 mg/kg KGW, mixture molar ratio Indometacine:Phospholipon 45 = 1:2, 3.5 h, n=10): 2.10 ± 0.36
Ulcer Index ([1]; Table IV, rat, oral, 10 mg/kg KGW, mixture molar ratio Indometacine:Phospholipon 45 = 1:2, 3.5 h, n=10): 2.20 ± 0.42
Ulcer Index ([1]; Table IV, rat, oral, 20 mg/kg KGW, mixture molar ratio Indometacine:Phospholipon 45 = 1:2, 3.5 h, n=10): 2.30 ± 0.47
Ulcer Index ([1]; Table IV, rat, oral, 30 mg/kg KGW, mixture molar ratio Indometacine:Phospholipon 45 = 1:2, 3.5 h, n=10): 2.70 ± 0.30
Ulcer Index [1, 4]: 2.60 ± 0.22
Variation of Mean Ulcer Factor: Indometacine With p^+ Versus Without p^+ [1, 4]: 0%

CN1C2CCC1CC(OC(=O)C(CO)c1ccccc1)C2 (stereo not shown) [atropinesulphate]
ED50 ([1]; po): 17.1 mg/kg
